Source: patent US10856562B2, “Flavor composition and edible compositions containing same” (MARS, INCORPORATED, priority 2013, dated 2020)
“Also recorded” adds a separate entry of the source. Square brackets hold non-standard residues; d marks the D form. Ends that are not written are not given here. pGlu = O=C1CC[C@@H](C(=O)O)N1

Experiments:
panelists [1] = assay: Return to baseline protocol: salt reference re-tasted at 1 minute intervals; format: in vivo, human; conditions: for Time needed to return to baseline as the concentration increases: 0.1 to 40.0/50.0 ppb
Experimental: After evaluating the sample for salt and other perceptions (step 3 above), each panelist re-tasted the salt reference (5.0 intensity) at 1 minute intervals until their perception of the saltiness intensity of the reference returned to 5.0. Each panelist recorded salt intensity at each interval and took qualitative notes on other perceptions seen in aftertaste. Attribute Perception Protocol • The panelists evaluated each sample using the following procedure • Descriptive Profiles (flavor and chemical feeling factors) of 5 levels of salt enhancing solutions • Individual data was collected for the flavor and chemical feeling factors of the product in-mouth • Increased Salt Perception Protocol • Each panelist tasted salt 5 reference (0.35% salt solution)—to ground themselves on salt intensity of 5.0. • Each panelist tasted the test sample (0.1 ppb, 0.5 ppb, 1.0 ppb, 10.0 ppb or 40.0/50.0 ppb all in 0.2% NaCl solution: only one per session) • Each panelist then re-tasted the salt 5 reference and rated it for salt intensity as well as any other basic taste, chemical feeling factor, or aromatic perceived. This captured any increased salt perception indicated by the test sample as well as any other perceptions present. • Return to Baseline Protocol • After evaluating the sample for salt & other perceptions, panelists re-tasted the salt 5 reference at 1 minute intervals until their perception of the salt 5 saltiness intensity had returned to 5.0. Each panelist recorded their salt intensity at each interval and took qualitative notes on other perceptions seen in aftertaste. Sample Preparation

panelists [2] = assay: Increased salt perception protocol: salt 5 reference (0.35% salt solution) re-tasted after expectoration of test sample; format: in vivo, human; conditions: for Astringent, after-expectoration perception / Bitter, after-expectoration perception / Flinty/Mineral, after-expectoration perception / Metallic, after-expectoration perception / Numbing, after-expectoration perception / Salt, after-expectoration perception (mean salt perception after expectoration) / Sour, after-expectoration perception / Sweet, after-expectoration perception: salt 5 reference re-tasted, mean score; for Salt perception after expectoration as the concentration increases: 0.1 to 40.0/50.0 ppb in 0.2% NaCl; for Salt perception from in-mouth to after expectoration: all samples
Text: 1. Each panelist tasted a salt reference (0.35% salt solution) with a reference salt intensity of 5.0 which provided a baseline for each panelist for salt intensity. 2. Each panelist tasted a test sample (0.1 ppb, 0.5 ppb, 1.0 ppb, 10.0 ppb or 40.0 ppb all in 0.2% NaCl solution). Only one sample was tasted per session. 3. Each panelist re-tasted the salt reference (5.0 intensity) and rated it for salt intensity as well as any other basic taste, chemical feeling factor, or aromatic perceived. Thus, any increased salt perception as a result of the test sample would be determined, as well as any other perceptions present. Attribute Perception Protocol • The panelists evaluated each sample using the following procedure • Descriptive Profiles (flavor and chemical feeling factors) of 5 levels of salt enhancing solutions • Individual data was collected for the flavor and chemical feeling factors of the product in-mouth • Increased Salt Perception Protocol • Each panelist tasted salt 5 reference (0.35% salt solution)—to ground themselves on salt intensity of 5.0. • Each panelist tasted the test sample (0.1 ppb, 0.5 ppb, 1.0 ppb, 10.0 ppb or 40.0/50.0 ppb all in 0.2% NaCl solution: only one per session) • Each panelist then re-tasted the salt 5 reference and rated it for salt intensity as well as any other basic taste, chemical feeling factor, or aromatic perceived. This captured any increased salt perception indicated by the test sample as well as any other perceptions present. • Return to Baseline Protocol • After evaluating the sample for salt & other perceptions, panelists re-tasted the salt 5 reference at 1 minute intervals until their perception of the salt 5 saltiness intensity had returned to 5.0. Each panelist recorded their salt intensity at each interval and took qualitative notes on other perceptions seen in aftertaste. Sample Preparation

[pGlu]-Val-Leu [SE-13]
Mean time needed to return to baseline (panelists [1]; 0.1 ppb in 0.2% NaCl): 7.6 min
Mean time needed to return to baseline (min.) (panelists [1]; 0.1 ppb in 0.2% NaCl): 7.6 min
Time needed to return to baseline as the concentration increases (panelists [1]): increases notably from 0.1 ppb to 0.5 ppb and from 10.0 ppb to 40.0 ppb; also recorded: does not necessarily increase
Time needed to return to baseline as the concentration increases (panelists [1]; listed as pGlu-Val-Leu): did not necessarily increase
Mean time needed to return to baseline (panelists [1]; 0.5 ppb in 0.2% NaCl): 9.5 min
Mean time needed to return to baseline (min.) (panelists [1]; 0.5 ppb in 0.2% NaCl): 9.5 min
Mean time needed to return to baseline (panelists [1]; 1.0 ppb in 0.2% NaCl): 8.7 min
Mean time needed to return to baseline (min.) (panelists [1]; 1.0 ppb in 0.2% NaCl): 8.7 min
Mean time needed to return to baseline (panelists [1]; 10.0 ppb in 0.2% NaCl): 8.6 min
Mean time needed to return to baseline (min.) (panelists [1]; 10.0 ppb in 0.2% NaCl): 8.6 min
Mean time needed to return to baseline (panelists [1]; 40.0 ppb in 0.2% NaCl): 13.1 min
Mean time needed to return to baseline (min.) (panelists [1]; 40.0 ppb in 0.2% NaCl): 13.1 min
Time needed to return to baseline, comparison of SE-13, SE-14 and SE-17 (panelists [1]; overall): greatest
Astringent, after-expectoration perception (panelists [2]; 0.1 ppb in 0.2% NaCl): 0.0
Bitter, after-expectoration perception (panelists [2]; 0.1 ppb in 0.2% NaCl): 0.1
Flinty/Mineral, after-expectoration perception (panelists [2]; 0.1 ppb in 0.2% NaCl): 0.1
Metallic, after-expectoration perception (panelists [2]; 0.1 ppb in 0.2% NaCl): 0.3
Numbing, after-expectoration perception (panelists [2]; 0.1 ppb in 0.2% NaCl): 0.0
Salt, after-expectoration perception (mean salt perception after expectoration) (panelists [2]; 0.1 ppb in 0.2% NaCl): 6.8
Sour, after-expectoration perception (panelists [2]; 0.1 ppb in 0.2% NaCl): 0.0
Sweet, after-expectoration perception (panelists [2]; 0.1 ppb in 0.2% NaCl): 0.0
Level of the aromatics, basic tastes and chemical feeling factors after expectoration with increasing concentration (panelists [2]; 0.1 to 40.0/50.0 ppb): do not increase
Salt perception after expectoration as the concentration increases (panelists [2]): increases slightly; also recorded: slight increase
Salt perception after expectoration as the concentration increases (panelists [2]; listed as pGlu-Val-Leu): increased slightly
Astringent, after-expectoration perception (panelists [2]; 0.5 ppb in 0.2% NaCl): 0.0
Bitter, after-expectoration perception (panelists [2]; 0.5 ppb in 0.2% NaCl): 0.0
Flinty/Mineral, after-expectoration perception (panelists [2]; 0.5 ppb in 0.2% NaCl): 0.1
Metallic, after-expectoration perception (panelists [2]; 0.5 ppb in 0.2% NaCl): 0.3
Numbing, after-expectoration perception (panelists [2]; 0.5 ppb in 0.2% NaCl): 0.1
Salt, after-expectoration perception (mean salt perception after expectoration) (panelists [2]; 0.5 ppb in 0.2% NaCl): 6.4
Sour, after-expectoration perception (panelists [2]; 0.5 ppb in 0.2% NaCl): 0.0
Sweet, after-expectoration perception (panelists [2]; 0.5 ppb in 0.2% NaCl): 0.0
Astringent, after-expectoration perception (panelists [2]; 1.0 ppb in 0.2% NaCl): 0.0
Bitter, after-expectoration perception (panelists [2]; 1.0 ppb in 0.2% NaCl): 0.0
Flinty/Mineral, after-expectoration perception (panelists [2]; 1.0 ppb in 0.2% NaCl): 0.2
Metallic, after-expectoration perception (panelists [2]; 1.0 ppb in 0.2% NaCl): 0.1
Numbing, after-expectoration perception (panelists [2]; 1.0 ppb in 0.2% NaCl): 0.0
Salt, after-expectoration perception (mean salt perception after expectoration) (panelists [2]; 1.0 ppb in 0.2% NaCl): 7.5
Sour, after-expectoration perception (panelists [2]; 1.0 ppb in 0.2% NaCl): 0.0
Sweet, after-expectoration perception (panelists [2]; 1.0 ppb in 0.2% NaCl): 0.0
Astringent, after-expectoration perception (panelists [2]; 10.0 ppb in 0.2% NaCl): 0.0
Bitter, after-expectoration perception (panelists [2]; 10.0 ppb in 0.2% NaCl): 0.0
Flinty/Mineral, after-expectoration perception (panelists [2]; 10.0 ppb in 0.2% NaCl): 0.1
Metallic, after-expectoration perception (panelists [2]; 10.0 ppb in 0.2% NaCl): 0.3
Numbing, after-expectoration perception (panelists [2]; 10.0 ppb in 0.2% NaCl): 0.0
Salt, after-expectoration perception (mean salt perception after expectoration) (panelists [2]; 10.0 ppb in 0.2% NaCl): 8.2
Sour, after-expectoration perception (panelists [2]; 10.0 ppb in 0.2% NaCl): 0.0
Sweet, after-expectoration perception (panelists [2]; 10.0 ppb in 0.2% NaCl): 0.0
Astringent, after-expectoration perception (panelists [2]; 40.0 ppb in 0.2% NaCl): 0.0
Bitter, after-expectoration perception (panelists [2]; 40.0 ppb in 0.2% NaCl): 0.0
Flinty/Mineral, after-expectoration perception (panelists [2]; 40.0 ppb in 0.2% NaCl): 0.3
Metallic, after-expectoration perception (panelists [2]; 40.0 ppb in 0.2% NaCl): 0.2
Numbing, after-expectoration perception (panelists [2]; 40.0 ppb in 0.2% NaCl): 0.0
Salt, after-expectoration perception (mean salt perception after expectoration) (panelists [2]; 40.0 ppb in 0.2% NaCl): 8.3
Sour, after-expectoration perception (panelists [2]; 40.0 ppb in 0.2% NaCl): 0.0
Sweet, after-expectoration perception (panelists [2]; 40.0 ppb in 0.2% NaCl): 0.0
Umami like swelling of lips and tongue, after expectoration (panelists [2]; all levels): Panelists also experience Umami like swelling of lips and tongue
Salt perception from in-mouth to after expectoration (panelists [2]; 0.1 to 40.0/50.0 ppb): increases after expectoration in all samples; also recorded: noticeable increase
Salt perception from in-mouth to after expectoration (panelists [2]; 0.1 to 40.0/50.0 ppb, listed as pGlu-Val-Leu): increased after expectoration in all samples
